Values of other authors, collected in US20080233219A1, “Composition for diet comprising plant essential oil as active ingredient, sheet type composition for diet comprising thereof, percutaneous pharmaceutical agent for diet comprising thereof, and method for producing thereof” (NATURE TECHNOLOGY INC., priority 2005, published 2008).

Assays:
[1] = in vivo
[2] = in three month

Q: Which side effects [1] does the source give for OC1(c2ccc(Cl)cc2)c2ccccc2C2=NCCN21 (centres unmarked) [Mazindol] here?
A: not serious ones except cotton mouth, astriction, indigestible feeling

Q: What about the “gradual weight loss, average” value [2] of the same molecule?
A: about 4.5 kg
